Experimental data reported in patent publication US7138361B2, “Herbicidal heterocycles” (E. I. du Pont de Nemours and Company, priority 2000, dated 2006).

Columns and labels:
Format in all cases: in vivo
[1] = test system: morningglory (Ipomoea hederacea); test: Test C preemergence
Method in brief: (§1)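 Plants held in greenhouse for 12–14 days post-application are scored by eye against controls on a 0–100 control scale. Application timing: preemergence on sown seed, or postemergence on 2–18 cm plants.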

kochia (Kochia scoparia) = test: Test C preemergence
Method in brief: as §1

corn (Zea mays) = test: Test C preemergence
Method in brief: as §1

[2] = test system: giant foxtail (Setaria faberii); test: Test C preemergence
Method in brief: as §1

[3] = test system: Surinam grass (Brachiaria decumbens); test: Test C preemergence
Method in brief: as §1

[4] = test system: cocklebur (Xanthium strumarium); test: Test C preemergence
Method in brief: as §1

[5] = test system: goosegrass (Eleusine indica); test: Test C preemergence
Method in brief: as §1

[6] = test system: lambsquarters (Chenopodium album); test: Test C preemergence
Method in brief: as §1

[7] = test system: pigweed (Amaranthus retroflexus); test: Test C preemergence
Method in brief: as §1

[8] = test system: velvetleaf (Abutilon theophrasti); test: Test C preemergence
Method in brief: as §1

Nightshade = test: Test C preemergence
[9] = test system: yellow nutsedge (Cyperus esculentus); test: Test C preemergence
Method in brief: as §1

[10] = test system: woolly cupgrass (Eriochloa villosa); test: Test C preemergence
Method in brief: as §1

[11] = test system: bermudagrass (Cynodon dactylon); test: Test C preemergence
Method in brief: as §1

[12] = test system: johnsongrass (Sorghum halepense); test: Test C preemergence
Method in brief: as §1

Sunflower [13] = test: Test C preemergence; conditions: Rate 125 g/ha; scale 0 to 100, 0 no effect, 100 complete control
[14] = test system: crabgrass (Digitaria sanguinalis); test: Test C preemergence
Method in brief: as §1

soybean (Glycine max) = test: Test C preemergence
Method in brief: as §1

[15] = test system: common ragweed (Ambrosia elatior); test: Test C preemergence
Method in brief: as §1

[16] = test system: barnyardgrass (Echinochloa crus-galli); test: Test C flooded paddy test; conditions: for Barnyardgrass plant response rating: Flooded Paddy, scale 0 to 100, 0 no effect, 100 complete control; for Plant response rating, Barnyardgrass: flooded paddy test, scale 0 to 100 (0 no effect, 100 complete control)
Method in brief: (§2)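 Visually assessed vs untreated controls 12–14 d post-treatment (greenhouse). Flooded paddy plants were at the 2-leaf stage; scale 0 = no effect, 100 = complete control.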

rice (Oryza saliva) = test: Test C flooded paddy test; conditions: for Rice plant response rating: Flooded Paddy, scale 0 to 100, 0 no effect, 100 complete control; for Plant response rating, Rice: flooded paddy test, scale 0 to 100 (0 no effect, 100 complete control)
Method in brief: as §2

Sunflower [17] = test: Test C preemergence; conditions: Rate 500 g/ha, visual evaluation after 12 to 14 days
[18] = Rate 125 g/ha, scale 0 to 100, 0 no effect, 100 complete control
[19] = preemergence, Rate 62 g/ha, scale 0 to 100
[20] = preemergence, Rate 250 g/ha, scale 0 to 100, 0 no effect, 100 complete control
[21] = preemergence, Rate 500 g/ha, visual evaluation after 12 to 14 days

Cc1ccc(N2CCC(n3ccc(C(C)(C)C)n3)C2=O)cc1I (centres unmarked) [Compound 122]
Plant response rating, Morningglory [1, 18]: 0
Plant response rating, Morningglory [1, 19]: 0
Plant response rating, Morningglory [1, 20]: 100
Plant response rating, Kochia (kochia (Kochia scoparia); [18]): 100
Plant response rating, Kochia (kochia (Kochia scoparia); [19]): 100
Plant response rating (0 to 100), Kochia (kochia (Kochia scoparia); [21]): 100
Plant response rating, Kochia (kochia (Kochia scoparia); [20]): 100
Plant response rating, Corn (corn (Zea mays); [18]): 0
Plant response rating, Corn (corn (Zea mays); [19]): 0
Plant response rating (0 to 100), Corn (corn (Zea mays); [21]): 0
Plant response rating, Corn (corn (Zea mays); [20]): 0
Plant response rating, Foxtail, Giant [2, 18]: 0
Plant response rating, Foxtail, Giant [2, 19]: 0
Plant response rating (0 to 100), Foxtail, Giant [2, 21]: 0
Plant response rating, Foxtail, Giant [2, 20]: 0
Plant response rating, Surinam grass [3, 18]: 0
Plant response rating, Surinam grass [3, 19]: 0
Plant response rating (0 to 100), Surinam grass [3, 21]: 60
Plant response rating, Surinam grass [3, 20]: 20
Plant response rating, Cocklebur [4, 18]: 0
Plant response rating, Cocklebur [4, 19]: 0
Plant response rating (0 to 100), Cocklebur [4, 21]: 0
Plant response rating, Cocklebur [4, 20]: 0
Plant response rating, Goosegrass [5, 18]: 100
Plant response rating, Goosegrass [5, 19]: 90
Plant response rating (0 to 100), Goosegrass [5, 21]: 100
Plant response rating, Goosegrass [5, 20]: 100
Plant response rating, Lambsquarters [6, 18]: 100
Plant response rating, Lambsquarters [6, 19]: 100
Plant response rating (0 to 100), Lambsquarters [6, 21]: 100
Plant response rating, Lambsquarters [6, 20]: 100
Plant response rating, Pigweed [7, 18]: 20
Plant response rating, Pigweed [7, 19]: 0
Plant response rating (0 to 100), Pigweed [7, 21]: 100
Plant response rating, Pigweed [7, 20]: 20
Plant response rating, Velvetleaf [8, 18]: 10
Plant response rating, Velvetleaf [8, 19]: 0
Plant response rating (0 to 100), Velvetleaf [8, 21]: 20
Plant response rating, Velvetleaf [8, 20]: 20
Plant response rating, Nightshade (Nightshade; Rate 62 g/ha, scale 0 to 100): 0
Plant response rating, Nightshade (Nightshade; [18]): 0
Plant response rating, Nightshade (Nightshade; Rate 250 g/ha, scale 0 to 100, 0 no effect, 100 complete control): 30
Plant response rating, Nutsedge [9, 18]: 0
Plant response rating, Nutsedge [9, 19]: 0
Plant response rating (0 to 100), Nutsedge [9, 21]: 0
Plant response rating, Nutsedge [9, 20]: 0
Plant response rating, Cupgrass, Woolly [10, 18]: 20
Plant response rating, Cupgrass, Woolly [10, 19]: 0
Plant response rating (0 to 100), Cupgrass, Woolly [10, 21]: 100
Plant response rating, Cupgrass, Woolly [10, 20]: 100
Plant response rating, Bermudagrass [11, 18]: 100
Plant response rating, Bermudagrass [11, 19]: 100
Plant response rating (0 to 100 where 0 is no effect and 100 is complete control), Bermudagrass [11, 21]: 100
Plant response rating, Bermudagrass [11, 20]: 100
Plant response rating, Johnsongrass [12, 18]: 0
Plant response rating, Johnsongrass [12, 19]: 0
Plant response rating (0 to 100), Johnsongrass [12, 21]: 20
Plant response rating, Johnsongrass [12, 20]: 0
Plant response rating, Sunflower (Sunflower [13]): 0
Plant response rating, Crabgrass [14, 18]: 100
Plant response rating, Crabgrass [14, 19]: 90
Plant response rating (0 to 100), Crabgrass [14, 21]: 100
Plant response rating, Crabgrass [14, 20]: 100
Plant response rating, Soybean (soybean (Glycine max); [18]): 0
Plant response rating, Soybean (soybean (Glycine max); [19]): 0
Plant response rating (0 to 100), Soybean (soybean (Glycine max); [21]): 0
Plant response rating, Soybean (soybean (Glycine max); [20]): 0
Plant response rating, Ragweed, Common [15, 18]: 0
Plant response rating, Ragweed, Common [15, 19]: 0
Plant response rating (0 to 100), Ragweed, Common [15, 21]: 100
Plant response rating, Ragweed, Common [15, 20]: 20
Barnyardgrass plant response rating ([16]; Rate 250 g/ha): 0
Barnyardgrass plant response rating ([16]; Rate 500 g/ha): 100
Plant response rating, Barnyardgrass ([16]; Rate 62 g/ha): 0
Plant response rating, Barnyardgrass ([16]; Rate 125 g/ha): 0
Rice plant response rating (rice (Oryza saliva); Rate 250 g/ha): 0
Rice plant response rating (rice (Oryza saliva); Rate 500 g/ha): 0
Plant response rating, Rice (rice (Oryza saliva); Rate 62 g/ha): 0
Plant response rating, Rice (rice (Oryza saliva); Rate 125 g/ha): 0
Plant response rating (0 to 100), Sunflower (Sunflower [17]): 30
